Assay results as given in article PMC3795776, “Alpha-Helical Destabilization of the Bcl-2-BH4-Domain Peptide Abolishes Its Ability to Inhibit the IP3 Receptor” (PLoS ONE, 2013).

How the values were obtained:
[1] = system: IP3R-mediated Ca2+ release in permeabilized MEF cells; assay: Unidirectional 45Ca2+-flux assay, IP3-induced Ca2+ release (IICR); type: cell-based, mouse; settings: result in words; for effect on IP3R-mediated Ca2+ release at 50 µM peptide: 3 µM IP3, 50 µM peptide
Experimental: ^45Ca^2+-unidirectional flux experiments were performed as previously described. Twelve-well clusters containing MEF cells were fixed on a thermostated plate at 30 °C on a mechanical shaker. The culture medium was aspirated, and the cells were permeabilized by incubating them for 10 min in a solution containing 120 mM KCl, 30 mM imidazole-HCl (pH 6.8), 2 mM MgCl2, 1 mM ATP, 1 mM EGTA and 20 µg/ml saponin. The non-mitochondrial Ca^2+ stores were then loaded for 45 min in 120 mM KCl, 30 mM imidazole-HCl (pH 6.8), 5 mM MgCl2, 5 mM ATP, 0.44 mM EGTA, 10 mM NaN3 to prevent mitochondrial Ca^2+ uptake, and 150 nM free ^45Ca^2+ (28 µCi/ml). Then, 1 ml of efflux medium containing 120 mM KCl, 30 mM imidazole-HCl (pH 6.8) and 1 mM EGTA was added and replaced every 2 min. IP3 (3 µM) was added for 2 min after 10 min of efflux. At the end of the experiment, all ^45Ca^2+ remaining in the stores was released by incubation with 1 ml of a 2% (w/v) sodium dodecyl sulfate solution for 30 min. Ca^2+ release was plotted as fractional loss (% / 2 min) as a function of time as previously described. The effect of the BH4-domain peptides on IICR was tested by pre-incubating the peptides for 4 min before exposing the stores to IP3.

[2] = CD spectroscopy, α-helical content (CONTIN/LL deconvolution); type: physicochemical; settings: 50 µM peptide in 97.5% TFE / 2.5% methanol, 25 °C, 190-260 nm, ten scans, CDPro CONTIN/LL
Experimental: CD spectra (Jasco J-810 circular dichroism spectropolarimeter, USA) were recorded at 1 nm intervals over the 190-260 nm wavelength range using 1 mm path length quartz cells (Hellma, Germany). Ten scans were performed. The experiments were run at 20 nm/min and the temperature was fixed at 298^° K (25 °C). The secondary structure of the peptide (50 µM) was determined in 97.5% 2,2,2-trifluoroethanol (TFE) and 2.5% methanol. The ellipticity is calculated per mole of amino-acid residue. To estimate the secondary structure of the peptide in terms of α-helical content, an analysis of the relevant CD spectra was carried out using the CDPro software (http://lamar.colostate.edu/~sreeram/CDPro/main.html) developed by Woody and coworkers. The basis set 10 of the CDPro software was used. The analysis was performed using the CONTIN/LL [31], a self-consistent method with an incorporated variable selection.

[3] = target: GST-Dom3 IP3R1 (GST fused to IP3R1 Domain 3, aa 923-1581) (mouse, UniProt P11881 923-1581); assay: cell-based or functional assay
Sequence of GST-Dom3 IP3R1 (GST fused to IP3R1 Domain 3, aa 923-1581) (P11881 923-1581): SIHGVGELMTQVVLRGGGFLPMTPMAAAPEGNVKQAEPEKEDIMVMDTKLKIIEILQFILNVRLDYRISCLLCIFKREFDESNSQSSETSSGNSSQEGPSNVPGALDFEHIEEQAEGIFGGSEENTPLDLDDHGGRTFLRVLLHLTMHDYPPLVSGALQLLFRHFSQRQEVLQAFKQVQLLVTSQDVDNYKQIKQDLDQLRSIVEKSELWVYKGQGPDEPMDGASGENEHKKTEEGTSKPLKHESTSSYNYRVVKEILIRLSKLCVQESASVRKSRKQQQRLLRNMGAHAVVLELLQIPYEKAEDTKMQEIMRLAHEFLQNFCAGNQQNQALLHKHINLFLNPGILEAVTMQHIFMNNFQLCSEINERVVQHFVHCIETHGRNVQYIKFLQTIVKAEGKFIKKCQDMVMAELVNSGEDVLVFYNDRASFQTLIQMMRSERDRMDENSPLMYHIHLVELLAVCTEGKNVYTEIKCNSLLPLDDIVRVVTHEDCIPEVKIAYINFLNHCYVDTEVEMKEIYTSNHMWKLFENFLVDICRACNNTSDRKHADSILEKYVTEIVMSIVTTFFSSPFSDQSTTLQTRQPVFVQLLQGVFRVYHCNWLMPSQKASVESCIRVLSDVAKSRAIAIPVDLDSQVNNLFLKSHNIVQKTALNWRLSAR

Molecule | α-helical content [2] [%] | IC50 of inhibition of IP3-induced Ca2+ release (IICR), unidirectional 45Ca2+ flux in permeabilized MEF cells, 3 µM IP3, peptide 0.1-100 µM [3] [µM] | effect on IP3R-mediated Ca2+ release at 50 µM peptide [1] | effect on IICR, concentration-response ([1]; 3 µM IP3, peptide 0.1-100 µM, 3 independent experiments)
RTGYDNREGVMKYGHYKLSQRGYEW [Bcl-2-BH4 II/GG, Bcl-2-BH4 peptide with glycines at positions I14/I19] | 32 |  | lost their ability to inhibit IP3R-mediated Ca^2+ release | 
WYEKQRSLHGIMYYVIEDRNTKGYR [Bcl-2-BH4 SCR, scrambled version of the Bcl-2-BH4 peptide, reference compound] |  |  |  | neither Bcl-2-BH4 IV/GG (Figure 3A-B) nor the scrambled version of the Bcl-2-BH4 peptide (Bcl-2-BH4 SCR) (Figure 3B) significantly affect IICR

The next lines start with results.

α-helical content [2] [%] | IC50 of inhibition of IP3-induced Ca2+ release (IICR), unidirectional 45Ca2+ flux in permeabilized MEF cells, 3 µM IP3, peptide 0.1-100 µM [3] [µM] | Molecule | effect on IP3R-mediated Ca2+ release at 50 µM peptide [1] | effect on IICR, concentration-response ([1]; 3 µM IP3, peptide 0.1-100 µM, 3 independent experiments)
17.7 |  | RTGYDNREIGMKYGHYKGSQRGYEW [Bcl-2-BH4 VIL/GGG, Bcl-2-BH4 peptide with glycines at positions V15/I19/L23] | lost their ability to inhibit IP3R-mediated Ca^2+ release | 
 | ~30 | RTGYDNREIVMKYIHYKLSQRGYEW [Bcl-2-BH4 peptide] |  | 
